Experimental data: patent US9359634B2, “Fast reaction kinetics of enzymes having low activity in dry chemistry layers” (Roche Diabetes Care, Inc., priority 2009, dated 2016)

Experiments:
[1] = molecular target: T1, wild type glucose dehydrogenase (GlucDH) from Bacillus subtilis (Bacillus subtilis, UniProt P12310, A229V/A236S/Q252K); assay: Detection of ternary complexes by NADH fluorescence in the cuvette test; assay type: binding
Procedure: In order to check the existence of ternary complexes consisting of enzyme, reduced coenzyme and glucose or gluconolactone, experiments on the binding of the analyte based on the fluorescence properties of NADH were carried out in the cuvette test.
For this purpose, 1 mg NADH (Roche Company) was dissolved in 1 ml phosphate buffer and the associated fluorescence spectrum was recorded. Subsequently, 10 mg wild type glucose dehydrogenase (GlucDH) from Bacillus subtilis was added whereupon the complex GlucDH-NADH known from the literature was formed, which complex, due to a considerably longer life time of NADH (3 ns compared to 0.4 ns in the free state), yielded a shifted emission maximum at 450 nm (see FIG. 3).
The lowering of the fluorescence which also corresponds to a shortening of the life time is presumably due to the rapid energy depletion by the redox pair NADH-gluconolactone.

[2] = molecular target: T1, wild type glucose dehydrogenase (GlucDH) from Bacillus subtilis; details: in the complex GlucDH-NADH; cited from earlier work
[3] = molecular target: glucose dehydrogenase from Bacillus subtilis (Bacillus subtilis, UniProt P12310, A229V/A236S/Q252K); assay type: biochemical; details: dry reagent layer with wild type glucose dehydrogenase, blood applied, presence vs absence of gluconolactone
Chain of glucose dehydrogenase from Bacillus subtilis (P12310 whole entry A229V/A236S/Q252K): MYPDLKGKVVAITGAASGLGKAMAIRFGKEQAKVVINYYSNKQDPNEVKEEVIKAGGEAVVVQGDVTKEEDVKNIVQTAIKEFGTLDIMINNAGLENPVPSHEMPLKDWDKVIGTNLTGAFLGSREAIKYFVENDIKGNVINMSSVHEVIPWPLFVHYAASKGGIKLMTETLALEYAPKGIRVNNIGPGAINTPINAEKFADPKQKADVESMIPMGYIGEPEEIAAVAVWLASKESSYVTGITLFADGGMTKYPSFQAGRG

T1 sequence (P12310 whole entry A229V/A236S/Q252K): as above

| Compound | emission maximum ([1]; NADH in the complex GlucDH-NADH, phosphate buffer) [nm] | life time of NADH [2] [ns] | effect of added gluconolactone on the conversion of glucose [3] | change of fluorescence on titration of the complex GlucDH-NADH ([1]; binary complex GlucDH-NADH titrated with the substance) | emission maximum ([1]; complex GlucDH-NADH after titration with gluconolactone) [nm] |
| --- | --- | --- | --- | --- | --- |
| NC(=O)C1=CN([C@@H]2O[C@H](COP(=O)(O)OP(=O)(O)OC[C@H]3O[C@@H](n4cnc5c(N)ncnc54)[C@H](O)[C@@H]3O)[C@@H](O)[C@H]2O)C=CC1 [NADH] | 450 | 3 |  |  |  |
| O=C1O[C@H](CO)[C@@H](O)[C@H](O)[C@H]1O [gluconolactone] |  |  | considerable slowing down of the conversion | lowered the fluorescence | 427 |
